Results as given in the NIST ThermoML archive (doi:10.1016/j.jct.2019.04.023).

Assay: xn = mol fraction of the nth substance listed
Details: 101 kPa, Liquid; for viscosity: Falling or rolling sphere viscometry; for mass density: Vibrating tube method

CC[N+](CC)=C(N(C)C)N(C)C.O=S(=O)([N-]S(=O)(=O)C(F)(F)F)C(F)(F)F + CO
Details | mass density [kg/m3] | viscosity [mPa·s]
293.15 K, x1 = 0.0999 | 1073.55 | 1.848
293.15 K, x1 = 0.1984 | 1186.61 | 4.046
293.15 K, x1 = 0.3011 | 1249.9 | 7.913
293.15 K, x1 = 0.4008 | 1288.15 | 13.15
293.15 K, x1 = 0.5055 | 1315.68 | 19.75
293.15 K, x1 = 0.5916 | 1332.42 | 26.14
293.15 K, x1 = 0.712 | 1350.19 | 37.44
293.15 K, x1 = 0.7994 | 1360.11 | 46.94
293.15 K, x1 = 0.8995 | 1369.61 | 61.78
293.15 K, x1 = 1 | 1377.86 | 81.02
298.15 K, x1 = 0.0999 | 1068.63 | 1.685
298.15 K, x1 = 0.1984 | 1181.69 | 3.569
298.15 K, x1 = 0.3011 | 1245.05 | 6.875
298.15 K, x1 = 0.4008 | 1283.31 | 11.36
298.15 K, x1 = 0.5055 | 1310.86 | 16.81
298.15 K, x1 = 0.5916 | 1327.63 | 22.03
298.15 K, x1 = 0.712 | 1345.44 | 30.94
298.15 K, x1 = 0.7994 | 1355.37 | 38.51
298.15 K, x1 = 0.8995 | 1364.9 | 49.75
298.15 K, x1 = 1 | 1373.16 | 65.01
303.15 K, x1 = 0.0999 | 1063.71 | 1.538
303.15 K, x1 = 0.1984 | 1176.79 | 3.198
303.15 K, x1 = 0.3011 | 1240.23 | 6.03
303.15 K, x1 = 0.4008 | 1278.51 | 9.842
303.15 K, x1 = 0.5055 | 1306.08 | 14.47
303.15 K, x1 = 0.5916 | 1322.88 | 18.78
303.15 K, x1 = 0.712 | 1340.73 | 26.03
303.15 K, x1 = 0.7994 | 1350.68 | 32.26
303.15 K, x1 = 0.8995 | 1360.23 | 41.13
303.15 K, x1 = 1 | 1368.51 | 52.96
308.15 K, x1 = 0.0999 | 1058.79 | 1.413
308.15 K, x1 = 0.1984 | 1171.9 | 2.949
308.15 K, x1 = 0.3011 | 1235.43 | 5.332
308.15 K, x1 = 0.4008 | 1273.73 | 8.651
308.15 K, x1 = 0.5055 | 1301.33 | 12.59
308.15 K, x1 = 0.5916 | 1318.16 | 16.22
308.15 K, x1 = 0.712 | 1336.05 | 22.2
308.15 K, x1 = 0.7994 | 1346.03 | 27.19
308.15 K, x1 = 0.8995 | 1355.6 | 34.31
308.15 K, x1 = 1 | 1363.9 | 43.84
313.15 K, x1 = 0.0999 | 1053.86 | 1.296
313.15 K, x1 = 0.1984 | 1167.01 | 2.613
313.15 K, x1 = 0.3011 | 1230.63 | 4.749
313.15 K, x1 = 0.4008 | 1268.96 | 7.645
313.15 K, x1 = 0.5055 | 1296.6 | 11.05
313.15 K, x1 = 0.5916 | 1313.46 | 14.12
313.15 K, x1 = 0.712 | 1331.4 | 19.15
313.15 K, x1 = 0.7994 | 1341.4 | 23.25
313.15 K, x1 = 0.8995 | 1351 | 29.05
313.15 K, x1 = 1 | 1359.32 | 36.79
318.15 K, x1 = 0.0999 | 1048.89 | 1.2
318.15 K, x1 = 0.1984 | 1162.1 | 2.362
318.15 K, x1 = 0.3011 | 1225.81 | 4.261
318.15 K, x1 = 0.4008 | 1264.19 | 6.815
318.15 K, x1 = 0.5055 | 1291.87 | 9.775
318.15 K, x1 = 0.5916 | 1308.77 | 12.43
318.15 K, x1 = 0.712 | 1326.77 | 16.69
318.15 K, x1 = 0.7994 | 1336.79 | 20.12
318.15 K, x1 = 0.8995 | 1346.42 | 24.89
318.15 K, x1 = 1 | 1354.76 | 31.25
323.15 K, x1 = 0.0999 | 1043.89 | 1.114
323.15 K, x1 = 0.1984 | 1157.19 | 2.157
323.15 K, x1 = 0.3011 | 1221 | 3.854
323.15 K, x1 = 0.4008 | 1259.42 | 6.126
323.15 K, x1 = 0.5055 | 1287.15 | 8.704
323.15 K, x1 = 0.5916 | 1304.09 | 10.98
323.15 K, x1 = 0.712 | 1322.14 | 14.66
323.15 K, x1 = 0.7994 | 1332.18 | 17.56
323.15 K, x1 = 0.8995 | 1341.85 | 21.56
323.15 K, x1 = 1 | 1350.21 | 26.79
